Assays:
Test in all cases: Test 7 field trial, preemergence
[1] = test system: morningglory (IPOSS); assay type: in vivo, Ipomoea L. spp.
Procedure: (§1) Plots were 7.6 m long by 3.0 m wide with rows spaced 76 cm apart. Seeds were spaced 15 cm apart within the rows. The field was managed using conventional tillage practices. […] Wild radish was evaluated 14 and 28 days after application. […] Results are the means of the three replicates.

[2] = test system: wild radish (RAPRA); assay type: in vivo, Raphanus raphanistrum
Procedure: as §1

[3] = test system: jimsonweed (DATST); assay type: in vivo, Datura stramonium
Procedure: as §1

[4] = test system: Pennsylvania smartweed (POLPY); assay type: in vivo, Polygonum pensylvanicum
Procedure: as §1

[5] = test system: corn (ZEAMD); assay type: in vivo, Zea mays ssp. indentata; conditions: hybrid Pioneer 36B10, corn (Zea mays ssp. indentata), in vivo, 62 days after application
Procedure: as §1

[6] = test system: annual grasses (GGGAN); assay type: in vivo, Gramineae
Procedure: as §1

[7] = test system: redroot pigweed (AMARE); assay type: in vivo, Amaranthus retroflexus
Procedure: as §1

Question: CCOC(=O)c1nc(C2CC2)nc(N)c1Br [Compound 6, ethyl 6-amino-5-bromo-2-cyclopropyl-4-pyrimidinecarboxylate] was tested. Which “IPOSS Obs” value ([1]; 14 DAA, 125 g a.i./ha) did it give?
Answer: The value was 93%.

Question: What about the “IPOSS Obs” value ([1]; 14 DAA, 250 g a.i./ha) of the same compound?
Answer: Its value is 100%.

Question: And the “IPOSS Obs” value ([1]; 14 DAA, 500 g a.i./ha)?
Answer: Its value is 100%.

Question: And the “IPOSS Obs” value ([1]; 28 DAA, 125 g a.i./ha)?
Answer: The value was 93%.

Question: What about the “IPOSS Obs” value ([1]; 28 DAA, 250 g a.i./ha) of the same compound?
Answer: Its value is 100%.

Question: What about the “IPOSS Obs” value ([1]; 28 DAA, 500 g a.i./ha) of the same compound?
Answer: Its value is 100%.

Question: What about the “IPOSS Obs” value ([1]; 62 DAA, 125 g a.i./ha) of the same compound?
Answer: Its value is 100%.

Question: What about the “IPOSS Obs” value ([1]; 62 DAA, 250 g a.i./ha) of the same compound?
Answer: The value was 100%.

Question: What about the “IPOSS Obs” value ([1]; 62 DAA, 500 g a.i./ha) of the same compound?
Answer: The value was 100%.

Question: What about the “RAPRA Obs” value ([2]; 14 DAA, 125 g a.i./ha) of the same compound?
Answer: Its value is 25%.

Question: What about the “RAPRA Obs” value ([2]; 14 DAA, 250 g a.i./ha) of the same compound?
Answer: Its value is 40%.

Question: What about the “RAPRA Obs” value ([2]; 14 DAA, 500 g a.i./ha) of the same compound?
Answer: The value was 43%.

Question: And the “RAPRA Obs” value ([2]; 28 DAA, 125 g a.i./ha)?
Answer: Its value is 35%.

Question: And the “RAPRA Obs” value ([2]; 28 DAA, 250 g a.i./ha)?
Answer: The value was 30%.

Question: What about the “RAPRA Obs” value ([2]; 28 DAA, 500 g a.i./ha) of the same compound?
Answer: Its value is 30%.

Question: What about the “DATST Obs” value ([3]; 14 DAA, 125 g a.i./ha) of the same compound?
Answer: The value was 87%.

Question: What about the “DATST Obs” value ([3]; 14 DAA, 250 g a.i./ha) of the same compound?
Answer: The value was 100%.

Question: What about the “DATST Obs” value ([3]; 14 DAA, 500 g a.i./ha) of the same compound?
Answer: Its value is 95%.

Question: What about the “DATST Obs” value ([3]; 28 DAA, 125 g a.i./ha) of the same compound?
Answer: The value was 90%.

Question: And the “DATST Obs” value ([3]; 28 DAA, 250 g a.i./ha)?
Answer: The value was 100%.

Question: What about the “DATST Obs” value ([3]; 28 DAA, 500 g a.i./ha) of the same compound?
Answer: The value was 100%.

Question: What about the “DATST Obs” value ([3]; 62 DAA, 125 g a.i./ha) of the same compound?
Answer: The value was 75%.

Question: And the “DATST Obs” value ([3]; 62 DAA, 250 g a.i./ha)?
Answer: The value was 100%.

Question: What about the “DATST Obs” value ([3]; 62 DAA, 500 g a.i./ha) of the same compound?
Answer: The value was 90%.

Question: What about the “POLPY Obs” value ([4]; 14 DAA, 125 g a.i./ha) of the same compound?
Answer: Its value is 40%.

Question: What about the “POLPY Obs” value ([4]; 14 DAA, 250 g a.i./ha) of the same compound?
Answer: Its value is 83%.

Question: And the “POLPY Obs” value ([4]; 14 DAA, 500 g a.i./ha)?
Answer: Its value is 93%.

Question: And the “POLPY Obs” value ([4]; 28 DAA, 125 g a.i./ha)?
Answer: The value was 45%.

Question: And the “POLPY Obs” value ([4]; 28 DAA, 250 g a.i./ha)?
Answer: Its value is 80%.

Question: What about the “POLPY Obs” value ([4]; 28 DAA, 500 g a.i./ha) of the same compound?
Answer: The value was 88%.

Question: And the “POLPY Obs” value ([4]; 62 DAA, 125 g a.i./ha)?
Answer: The value was 75%.

Question: And the “POLPY Obs” value ([4]; 62 DAA, 250 g a.i./ha)?
Answer: The value was 55%.

Question: What about the “POLPY Obs” value ([4]; 62 DAA, 500 g a.i./ha) of the same compound?
Answer: The value was 100%.

Question: And the “ZEAMD Obs” value [5]?
Answer: The value was 0%.

Question: And the “GGGAN Obs” value ([6]; 14 DAA, 125 g a.i./ha)?
Answer: Its value is 7%.

Question: What about the “GGGAN Obs” value ([6]; 14 DAA, 250 g a.i./ha) of the same compound?
Answer: The value was 53%.

Question: And the “GGGAN Obs” value ([6]; 14 DAA, 500 g a.i./ha)?
Answer: Its value is 63%.

Question: And the “GGGAN Obs” value ([6]; 28 DAA, 125 g a.i./ha)?
Answer: Its value is 2%.

Question: And the “GGGAN Obs” value ([6]; 28 DAA, 250 g a.i./ha)?
Answer: The value was 35%.

Question: What about the “GGGAN Obs” value ([6]; 28 DAA, 500 g a.i./ha) of the same compound?
Answer: The value was 52%.

Question: And the “GGGAN Obs” value ([6]; 62 DAA, 125 g a.i./ha)?
Answer: The value was 90%.

Question: And the “GGGAN Obs” value ([6]; 62 DAA, 250 g a.i./ha)?
Answer: The value was 0%.

Question: What about the “GGGAN Obs” value ([6]; 62 DAA, 500 g a.i./ha) of the same compound?
Answer: The value was 0%.

Question: What about the “AMARE Obs” value ([7]; 14 DAA, 125 g a.i./ha) of the same compound?
Answer: Its value is 87%.

Question: And the “AMARE Obs” value ([7]; 14 DAA, 250 g a.i./ha)?
Answer: Its value is 98%.

Question: And the “AMARE Obs” value ([7]; 14 DAA, 500 g a.i./ha)?
Answer: Its value is 98%.

Question: And the “AMARE Obs” value ([7]; 28 DAA, 125 g a.i./ha)?
Answer: The value was 82%.

Question: What about the “AMARE Obs” value ([7]; 28 DAA, 250 g a.i./ha) of the same compound?
Answer: Its value is 97%.

Question: What about the “AMARE Obs” value ([7]; 28 DAA, 500 g a.i./ha) of the same compound?
Answer: The value was 98%.

Question: And the “AMARE Obs” value ([7]; 62 DAA, 125 g a.i./ha)?
Answer: The value was 80%.

Question: What about the “AMARE Obs” value ([7]; 62 DAA, 250 g a.i./ha) of the same compound?
Answer: The value was 70%.

Question: And the “AMARE Obs” value ([7]; 62 DAA, 500 g a.i./ha)?
Answer: Its value is 100%.

Reference: patent US20100285959A1, “HERBICIDAL MIXTURES” (priority 2006, published 2010)
